Publication PMC3985586, “Cratoxylum formosum (Jack) Dyer ssp. pruniflorum (Kurz) Gogel. (Hóng yá mù) extract induces apoptosis in human hepatocellular carcinoma HepG2 cells through caspase-dependent pathways” (Chinese Medicine, 2014)
Values after ≈ are worked out from the molar mass of the structure shown.

Legend:
HepG2 cells [1] = assay: Mitochondrial membrane potential (DiOC6, flow cytometry); assay type: cell-based, human; conditions: HepG2, 35% (v/v) H2O2 positive control, 12 and 24 h, P < 0.001
Method: Cells (1 × 10^6 cells/mL) were seeded into a 24-well plate, incubated at 37°C for 24 h, and then treated with 0, 30, 60, or 120 μg/mL of CF extract for 12 or 24 h. Concentrated hydrogen peroxide (35%, v/v) was used as a positive control. Next, the cells were washed, harvested by trypsinization, transferred to a microcentrifuge tube, and stained with a lipophilic fluorogenic dye, DiOC6, at 40 nM for 30 min in the dark at 37°C. After the incubation, the cells were immediately analyzed by flow cytometry (BD FACSCanto II, San Jose, CA, USA) for incorporation of the fluorochrome.

HepG2 cells [2] = assay: Neutral red cytotoxicity assay, HepG2; assay type: cell-based, human
Method: (§1) Cell viability was measured by an NR colorimetric assay. Human HepG2 cells and normal African green monkey kidney Vero cells were used as cell models to determine the percent cytotoxicity. Briefly, cells (4 × 10^6 cells/mL) were treated with CF extract at various concentrations (10, 25, 50, 100, 250, and 500 μg/mL) and the standard anticancer drug melphalan as a positive control, while the untreated groups were exposed to fresh medium at equal volumes to those used for the treated groups. After 24 h of exposure, the cells were incubated for 2 h with NR dye (50 μg/mL) dissolved in DMEM, and then washed with phosphate-buffered saline (PBS; pH 7.4). Finally, the cells were lysed with 0.33% HCl/isopropanol. A microplate reader (Tecan, France) was used to measure the absorbances of NR dye in the viable cells at 520 and 650 (reference) nm. The percentage of cell cytotoxicity of the CF extract was calculated as described by Machana et al.[18] and compared with that of melphalan. The selectivity index (SI) was calculated to determine the selective cancer cell line cytotoxicity. The SI of the test compound was compared with the IC50 for the Vero cells divided by the IC50 for the HepG2 cells.

HepG2 cells [3] = assay: DAPI staining apoptosis induction assay; assay type: cell-based, human; conditions: HepG2, 24 h, CF 120 μg/mL, melphalan 80 μg/mL (2 × IC50)
Method: Cells (1 × 10^6 cells/well) were treated with CF extract and the melphalan for 24 h at 2 × IC50, and the morphological changes of the induced apoptotic cells were determined by DAPI staining. The concentrations of CF extract and melphalan used in the following apoptosis experiments were 120 and 80 μg/mL, respectively. The cells were fixed in pure methanol at 4°C for 10 min, and then stained with DAPI (1 μg/mL) at room temperature in the dark. The excess dye was removed and glycerin was added to the cells with PBS at a 1:1 ratio and mixed well. Next, the cells were fixed on a slide and the apoptotic bodies observed at 40× objective magnification under an inverted fluorescence microscope (Eclipse TS100; Nikon, UK). The percentage of apoptotic cells was calculated as described by Machana et al.[18]. The average% apoptotic cells were calculated from three independent wells with 10 eye views in each well.

Vero cells = assay: Neutral red cytotoxicity assay, Vero; assay type: cell-based, African green monkey; conditions: Chlorocebus sabaeus, 24 h, read-out: IC50 ± SD Vero
Method: as §1

Compound	Alteration of MMP compared to untreated cells (HepG2 cells [1])	IC50 (HepG2 cells [2]; Homo sapiens, HepG2, 24 h, read-out: IC50 ± SD HepG2)	Selectivity index (SI) (HepG2 cells [2]; IC50 for Vero cells divided by IC50 for HepG2 cells, SI > 3 indicates high selectivity)	Percentage of apoptotic cells (HepG2 cells [3])	IC50 (Vero cells)
OO [H2O2, hydrogen peroxide]	significantly different				
N[C@@H](Cc1ccc(N(CCCl)CCCl)cc1)C(=O)O [Melphalan, melphalan]		37.7 ± 9.8 µg/mL (≈ 124 µM)	1.6	41.6 ± 2.1%	59.9 ± 3.2 µg/mL (≈ 196 µM)
